Data reported in patent US20250243218A1, “NOVEL CARBAMATE COMPOUND AND USE THEREOF” (CHENGDU SHIBEIKANG BIOMEDICAL TECHNOLOGY CO., LTD., priority 2022, published 2025).
Structures can show the parent of a compound that is named as a salt.

What was measured:
hERG potassium channel = target: T1, hERG potassium channel (Homo sapiens, UniProt Q12809); test: cell-based; conditions: IC50 (μM), inhibition of cardiac hERG potassium channel, manual patch-clamp, stably overexpressed hERG channel
T1 construct: expressed in transfected cells
T1 sequence (Q12809 whole entry): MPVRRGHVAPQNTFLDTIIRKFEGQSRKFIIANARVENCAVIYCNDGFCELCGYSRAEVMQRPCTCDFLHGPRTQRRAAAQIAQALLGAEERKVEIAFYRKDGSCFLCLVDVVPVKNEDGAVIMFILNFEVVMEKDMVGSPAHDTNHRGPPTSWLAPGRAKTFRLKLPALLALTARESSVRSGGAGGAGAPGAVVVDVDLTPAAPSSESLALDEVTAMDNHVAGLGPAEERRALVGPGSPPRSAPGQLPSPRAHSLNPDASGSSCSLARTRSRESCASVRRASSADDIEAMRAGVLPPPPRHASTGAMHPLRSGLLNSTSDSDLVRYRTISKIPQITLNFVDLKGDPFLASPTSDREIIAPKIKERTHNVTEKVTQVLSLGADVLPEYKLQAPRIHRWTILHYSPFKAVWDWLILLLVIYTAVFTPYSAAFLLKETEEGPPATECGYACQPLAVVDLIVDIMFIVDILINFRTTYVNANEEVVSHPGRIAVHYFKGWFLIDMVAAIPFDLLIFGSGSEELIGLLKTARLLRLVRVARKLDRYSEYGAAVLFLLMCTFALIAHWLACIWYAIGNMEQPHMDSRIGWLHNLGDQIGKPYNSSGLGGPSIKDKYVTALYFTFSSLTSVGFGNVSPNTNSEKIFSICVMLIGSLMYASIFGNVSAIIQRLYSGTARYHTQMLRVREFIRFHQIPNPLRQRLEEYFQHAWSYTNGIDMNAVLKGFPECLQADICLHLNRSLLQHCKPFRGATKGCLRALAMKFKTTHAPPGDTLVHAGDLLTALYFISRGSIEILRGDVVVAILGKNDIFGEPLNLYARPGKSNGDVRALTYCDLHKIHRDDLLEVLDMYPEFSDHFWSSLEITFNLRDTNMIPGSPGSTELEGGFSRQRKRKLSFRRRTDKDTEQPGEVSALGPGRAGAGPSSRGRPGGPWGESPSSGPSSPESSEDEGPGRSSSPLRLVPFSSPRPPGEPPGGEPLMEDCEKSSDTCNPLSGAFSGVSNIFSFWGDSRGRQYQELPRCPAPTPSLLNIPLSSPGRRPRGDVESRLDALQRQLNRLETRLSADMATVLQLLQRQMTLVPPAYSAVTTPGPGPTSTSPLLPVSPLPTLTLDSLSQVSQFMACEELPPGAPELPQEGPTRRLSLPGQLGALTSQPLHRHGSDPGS
From the text: Test Example 2: Effect of Compounds on Current in Stably Overexpressed hERG Channel

[1] = tested on: ADP-induced platelet aggregation in rats; test: Antiplatelet aggregation effect: ADP-induced platelet aggregation in PRP of rats after iv administration; format: in vivo; conditions: single iv at the same molar dose, blood 3 h after administration, ADP final 20 μM
From the text: 1. Test objective: Evaluation and comparison of the antiplatelet aggregation treatment effect of each compound after administration at the same molar amount
70 rats were randomly and evenly grouped into 7 groups, i.e., solvent control group, comparative example 1 (2-Oxo-clopidogrel) group, comparative example 2 (Vicagrel) group, compound 1 group, compound 2 group, compound 7 group and compound 8 group.
Rats were anesthetized by intraperitoneal injection of 1.5% sodium pentobarbital.
The anesthetized animals were transferred to an operating platform.
The rats were injected with anesthetic, and fixed on the operating platform in a supine position after the whole body of the rat became soft. After routine disinfection, the abdomen of the rat was incised along the abdominal midline using surgical scissors to open the abdominal cavity. The adipose tissue around the blood vessels was gently separated with a small forceps, and the excess adipose tissue covering the blood vessels was then wiped and removed with the cotton ball to make the blood vessels clearly visible (the abdominal aorta is located anterior to the vertebral column, and the abdominal vein appears thicker and darker in color than the abdominal aorta). The blood vessel was first fixed to prevent it from moving as much as possible. The left thumb and index finger fixed the adipose tissue and other organs on both sides of the blood vessel, while the ring finger pressed on the blood vessel at the upper end of the needle insertion point to lower the blood pressure, which can prevent blood spurting. The puncture needle was held with the right hand, with the bevel of the needle tip facing downward. The needle was inserted at an angle of about 30 degrees and advanced towards the heart to a suitable depth of about 5 mm. Once the blood had started to enter the needle via its tip, the other end of the blood collection needle was inserted into the vacuum tube. After the insertion of needle, the needle tip could be clamped with a hemostatic clip to prevent it from puncturing the blood vessel if the rat struggled due to insufficient anesthesia.
Three hours after the administration, the rats were anesthetized with sodium pentobarbital. Then blood was collected from the abdominal aorta, added with 3.8% sodium citrate (1:9) as an anticoagulant, mixed evenly and centrifuged at 200 g for 10 min. The supernatant was harvested to obtain the platelet-rich plasma (PRP), and the residual plasma was then centrifuged at 1600 g for 15 min to obtain the resulting supernatant as platelet-poor plasma (PPP).
Platelet aggregation rate was measured using a platelet aggregometer (model: Agg RAM, Helena, USA). The PPPs corresponding to the PRPs to be tested in each channel were first used to correct the light transmission, and the PPPs were removed after the correction. A cuvette added with 225 μl of PRP to be tested was then placed in each channel, and added with a stirrer, then ADP (with a final concentration of 20 μM). The platelet aggregometer immediately began to measure the platelet aggregation rate.

[2] = Pharmacokinetic study in SD rats, 2-Oxo-clopidogrel in plasma by LC/MS/MS; format: in vivo; conditions: SD, rat, in vivo
From the text: After being administered via single gavage at the same molar amount, the pharmacokinetic characteristics of each compound were investigated, and the main pharmacokinetic parameters were compared.
Each test compound was accurately weighed separately into a clean drug container, dissolved with appropriate amount of Solutol, shaken by vortex, added with purified water, ultrasonicated, and shaken by vortex until the compound was completely dissolved. All the formulations were freshly prepared on the day of administration.
Thirty healthy adult SD rats were administered via gavage.
Grouping and Fasting: SD rats were randomly grouped, with 6 rats per group, and administered with the corresponding compounds via gavage according to Table 3.
Sample Collection and Processing: 0.2 ml of blood was collected at different time points of before (0 h) and 5 min, 15 min, 30 min, 1 h, 2 h, 4 h, 8 h, and 24 h after the administration. After the anticoagulation with EDTA-K2 was completed, the blood was centrifuged at 4° C. for 5 min, and then the plasma was separated and stored at −80° C. for later measurement.
Measurement: The blood drug concentration of 2-Oxo-clopidogrel in all PK plasma samples was measured by LC/MS/MS method, and the pharmacokinetic parameters of individual compounds were calculated by using software WinNonlin 7.2.

Solubility study = format: physicochemical; conditions: 25° C. to 30° C.
Experimental: Samples of the example compound 2 and comparative example 2 (Vicagrel) were accurately weighed. Under the condition of 25° C. to 30° C., 1 ml of physiological saline and 1 ml of a buffer (pH 1.2) were taken, and added with 10 mg of each compound, respectively. The compound 2 of the present disclosure had excellent solubility, which can satisfy the demand for the formulation into an injection with an effective concentration in clinical, while the solubility of the comparative example 2 was extremely low and it cannot satisfy the demand for injection, and the addition of additional solubilizer may pose potential safety risks.

[3] = Influencing factor test (high temperature, high humidity, light); format: physicochemical; conditions: high temperature (60° C.), two days
Experimental: Test Methods: The samples of the compound 2 and comparative example 2 (Vicagrel) were weighed and placed in weighing bottles, respectively, and the weighing bottles were placed under the conditions of high temperature (60° C.), high humidity (RH 80%), and light (5000 Lux), respectively.

| Compound | IC50 (hERG potassium channel) [µM] | Platelet aggregation rate (%) ([1]; solvent control 76.06 ± 3.29) | further results |
| --- | --- | --- | --- |
| COC(=O)[C@H](c1ccccc1Cl)N1CCc2sc(OC(=O)N3CCN(C4CCCC4)CC3)cc2C1 [Compound 5, (S)-5-(1-(2-chlorophenyl)-2-methoxy-2-oxyethyl)-4,5,6,7-tetrahydrothieno[3,2-c]pyridin-2-yl 4-cyclopentylpiperazine-1-carboxylate] | 15.8 | – | – |
| CCCN1CCN(C(=O)Oc2cc3c(s2)CCN([C@H](C(=O)OC)c2ccccc2Cl)C3)CC1 [Compound 3, (S)-5-(1-(2-chlorophenyl)-2-methoxy-2-oxyethyl)-4,5,6,7-t etrahydrothieno[3,2-c]pyridin-2-yl-4-propylpiperazine-1-carboxylate] | 15.2 | – | – |
| COC(=O)[C@H](c1ccccc1Cl)N1CCc2sc(OC(=O)N3CCN(C4CCCCC4)CC3)cc2C1 [Compound 6, (S)-5-(1-(2-chlorophenyl)-2-methoxy-2-oxyethyl)-4,5,6,7-tetrahydrothieno[3,2-c]pyridin-2-yl 4-cyclohexylpiperazine-1-carboxylate] | 14.9 | – | – |
| COC(=O)[C@H](c1ccccc1Cl)N1CCc2sc(OC(=O)N3CCN(C)CC3)cc2C1 [Compound 1, (S)-5-(1-(2-chlorophenyl)-2-methoxy-2-oxyethyl)-4,5,6,7-tetrahydrothieno[3,2-c]pyridin-2-yl 4-methylpiperazine-1-carboxylate] | 20.5 | 24.08 ± 6.00 % | Platelet aggregation rate (%) ([1]; solvent control 76.06 ± 3.29, listed as compound 1): 24.08±6.00% |
| COC(=O)[C@H](c1ccccc1Cl)N1CCc2sc(OC(=O)N3CCC(N4CCCCC4)CC3)cc2C1 [Compound 8, (S)-5-(1-(2-chlorophenyl)-2-methoxy-2-oxyethyl)-4,5,6,7-t etrahydrothieno[3,2-c]pyridin-2-yl [1,4′-bipiperidine]-1′-carboxylate hydrochloride] | 27.3 | – | Platelet aggregation rate (%) ([1]; solvent control 76.06 ± 3.29, hydrochloride): 27.13 ± 6.50 % |
| COC(=O)[C@H](c1ccccc1Cl)N1CCc2sc(OC(=O)N3CCC(C4CCN(C)C4)CC3)cc2C1 (stereo partly drawn) [Compound 9, 5-((S)-1-(2-chlorophenyl)-2-methoxy-2-oxyethyl)-4,5,6,7-tetrahydrothieno[3,2-c]pyridin-2-yl-4-(1-methylpyrrolidine-3-yl) piperidine-1-carboxylate] | 27.2 | – | – |
| COC(=O)[C@H](c1ccccc1Cl)N1CCC2SC(=O)C=C2C1 (stereo partly shown) [Comparative Example 1, 2-Oxo-clopidogrel, reference compound] | – | 31.32 ± 6.07 ^ % | Platelet aggregation rate (%) ([1]; solvent control 76.06 ± 3.29, listed as comparative example 1): 31.32±6.07%; AUC0-last [2]: 60.15 ± 14.22 ng·h/mL; Cmax [2]: 38.48 ± 13.51 ng/mL; T1/2 [2]: 70.8 ± 12.6 min; Tmax [2]: 37.8 ± 9 min |
| COC(=O)[C@H](c1ccccc1Cl)N1CCc2sc(OC(=O)N3CCC(N4CCN(C)CC4)CC3)cc2C1 [Compound 10, (S)-5-(1-(2-chlorophenyl)-2-methoxy-2-oxyethyl)-4,5,6,7-tetrahydrothieno[3,2-c]pyridin-2-yl-4-(4-methylpiperazine-1-yl) piperidine-1-carboxylate] | 25.9 | – | – |
| COC(=O)[C@H](c1ccccc1Cl)N1CCc2sc(OC(=O)N3CCC(N4CCCCC4)CC3)cc2C1 [Compound 7, (S)-5-(1-(2-chlorophenyl)-2-methoxy-2-oxyethyl)-4,5,6,7-tetrahydrothieno[3,2-c]pyridin-2-yl [1,4′-bipiperidine]-1′-carboxylate] | 25.4 | 27.59 ± 6.99 % | Platelet aggregation rate (%) ([1]; solvent control 76.06 ± 3.29, listed as compound 7): 27.59±6.99% |
| COC(=O)[C@H](c1ccccc1Cl)N1CCc2sc(OC(=O)N3CCN(C4CC4)CC3)cc2C1 [Compound 4, (S)-5-(1-(2-chlorophenyl)-2-methoxy-2-oxyethyl)-4,5,6,7-tetrahydrothieno[3,2-c]pyridin-2-yl 4-cyclopropylpiperazine-1-carboxylate] | 16.4 | – | – |
| COC(=O)[C@H](c1ccccc1Cl)N1CCc2sc(OC(C)=O)cc2C1 [Comparative Example 2, Vicagrel, reference compound] | – | 39.32 ± 12.38 ^ % | Platelet aggregation rate (%) ([1]; solvent control 76.06 ± 3.29, listed as comparative example 2): 39.32±12.38%; Solubility, pH 1.2 buffer (Solubility study; 10 mg compound added to 1 ml buffer (pH 1.2)): < 0.5 mg/mL; Solubility, Physiological saline(1 ml) (Solubility study; 10 mg compound added to 1 ml physiological saline): insoluble; change in appearance and characteristics [3]: from a white solid to a yellowish-brown oil |
